# Results: BindingDB's records for patent US20240400579 (Genentech, 2024)
# Biological target: T1, 3-beta-hydroxysteroid-Delta(8),Delta(7)-isomerase (Homo sapiens, UniProt Q15125)
# Experiment: Determination of Binding Affinity to EBP-7-Dehydrocholesterol Reductase
# Experimental: Compounds were prepared in a 96-well U bottom plate using an Echo550 machine and 10 mM compound DMSO stock solution, followed by an 8-dose 5-fold serial dilutions protocol with final testing compound concentration ranging from 0.06 to 5000 nM, with DMSO back fill to 100 nL/well and n=2. […] The UniFilter-96 GF/B plates were pre-treated by adding 50 μl/well of 0.3% (v/v) PEI to UniFilter-96 GF/B plates. The plates were sealed and incubated at 4° C. for 3 hrs. Then, the plates were washed with ice-cold assay buffer 3 times. The radioligand binding assay was prepared by adding assay buffer diluted hEBP-DHCR7 membrane at 66.7 μg/ml x 150 μl/well into the 96-well compound plate to reach 10 μg membrane per well. Then, the assay buffer diluted [3H]-Compound 118A* was added at 25 nM×50 μl/well. Following this, the plate was centrifuged at 1000 rpm for 30 secs. The plate was then sealed and agitated at 600 rpm at 22° C. for 5 min, and then incubated at 22° C. for 3 hrs. The incubation was stopped by transferring the binding solution to the pre-treated UniFilter-96 GF/B plate, vacuum filtrated, and then washed four times with ice-cold assay buffer. Following this, the plates were dried at 37° C. for 45 min. The plates were then sealed at the bottom. 40 μl/well of scintillation cocktail was added to the plates. A MicroBeta2 microplate counter was then used to read the plate and analyze the data. For reference and test compounds, the results are expressed as % Inhibition, using the normalization equation: N=100-100×(U−C2)/(C1−C2), where U is the unknown value, C1 is the average of high controls, and C2 is the average value of low controls. The IC50 was determined by fitting percentage of inhibition as a function of compound concentrations with Hill equation using XLfit.
# T1 sequence (Q15125 whole entry): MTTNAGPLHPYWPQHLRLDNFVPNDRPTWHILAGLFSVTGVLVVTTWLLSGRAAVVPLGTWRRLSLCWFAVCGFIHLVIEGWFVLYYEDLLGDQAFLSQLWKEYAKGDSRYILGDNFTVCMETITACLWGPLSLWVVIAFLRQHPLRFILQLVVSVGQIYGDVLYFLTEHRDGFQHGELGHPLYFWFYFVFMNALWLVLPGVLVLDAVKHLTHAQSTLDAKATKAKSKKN
row,SMILES,Ki [nM]
1,"C[C@H](Cc1ccc(C2CCCCO2)c(Cl)c1)CN1CCC2(C1)CS(=O)(=O)C2 (stereo partly specified) [US20240400579, Example 124A]",18.5
2,"C[C@@H](Cc1ccc([C@@H]2CCCCO2)c(Cl)c1)CN1CCC2(C1)CS(=O)(=O)C2 [US20240400579, Example 124B]",25.3
3,"O=S1(=O)CC2(CCN(CCOc3cnc(C(F)(F)F)c(Cl)c3)CC2)C1 [US20240400579, Example 242]",13.1

# Compounds with a lower Ki, results first:
row,Ki [nM],SMILES
1,9.45,"O=S1(=O)CC2(CCN(CCCc3ccc(C(F)(F)F)cc3)C2)C1 [US20240400579, Example 113]"
2,4.02,"CC(C)(Cc1ccc(C(F)(F)F)cc1)CN1CCC2(C1)CS(=O)(=O)C2 [US20240400579, Example 125]"

# Biological target: T1, 3-beta-hydroxysteroid-Delta(8),Delta(7)-isomerase
# Experiment: Determination of Binding Affinity to EBP
# Experimental: This binding solution was centrifuged at 400 g for 5 minutes to collect the bead/membrane mixture. After re-suspending the pellet in binding buffer at the same calculated volume with 0.01% BSA (Sigma A1933), the bead/membrane mixture was added in 384-well low-binding surface plate (PerkinElmer Cat #6057480) at 25 i/well. Radioligand at different concentrations with and without the non-radio-labeled same ligand 5 uM (for nonspecific and total signal, respectively) was added to bring final volume to 50 i/well with DMSO concentration at 0.1%. At equilibrium (3 hours after ligand addition), radiometric signal CPM was counted by using a Microbeta2 microplate counter (Perkinelmer).
row,Ki [nM],SMILES
1,56,"CC(C)(Cc1ccc(C(F)(F)F)cc1)CN1CCC2(C1)CS(=O)(=O)C2 [US20240400579, Example 125]"
